Like-named read-outs stand apart in the source and are kept apart here.
Assays:
NUGC3 (P53 Y220C) = experiment: Cell viability assay (CellTiter-Glo, 6 days), NUGC3; format: cell-based; conditions: cell viability, 6 days, CellTiter-Glo, read-out: NUGC3 (P53 Y220C) IC50
How it was run: (§1)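 Cells seeded overnight at 37 °C, then exposed to compounds in medium for 6 days. Viability read by CellTiter-Glo luminescence, normalized to DMSO cell wells (high) and medium-only wells (low); IC50 taken as concentration giving 50% viability from 4-parameter logistic fit.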

[1] = system: NUGC-3_P53_Luc single clonal cell line (p53 Y220C); experiment: Reporter gene assay (p53 RE luciferase); format: cell-based; conditions: luciferase reporter, 6 hours, normalized to Ref-1a (10 μM) high control, read-out: p53(Y220C)_NUGC-3 EC50
How it was run: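 NUGC-3 cells stably carrying a p53 RE-driven luc2P reporter, washed free of phenol red, exposed to compound for 6 h at 37 °C; luminescence read. Activity normalised between DMSO (low) and Ref-1a 10 μM (high) controls; EC50 from 4-parameter logistic fit or Excel as concentration giving 50% activity.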

NUGC4 (P53 WT) = experiment: Cell viability assay (CellTiter-Glo, 6 days), NUGC4; format: cell-based; conditions: cell viability, 6 days, CellTiter-Glo, read-out: NUGC4 (P53 WT) IC50
How it was run: as §1

[2] = target: T1, His-p53 Y220C (94-294) protein (Homo sapiens, UniProt P04637, Y220C); experiment: In vitro DNA binding assay (HTRF); format: biochemical; conditions: % activation normalized to 2 μM Ref-1a high control
T1 construct: His-p53 Y220C (94-294) protein

SMILES: COc1cc(P(C)(C)=O)ccc1NCC#Cc1sc2c(NC3CCN(CCCF)CC3)cccc2c1CC(F)(F)F [Example 205, (4-((3-(7-((1-(3-fluoropropyl)piperidin-4-yl)amino)-3-(2,2,2-trifluoroethyl)benzo[b]thiophen-2-yl)prop-2-yn-1-yl)amino)-3-methoxyphenyl)dimethylphosphine oxide]
- IC50 (NUGC3 (P53 Y220C); Homo sapiens, NUGC-3, 144 h): 1320 nM
- EC50 ([1]; Homo sapiens, NUGC-3): 550 nM
- IC50 (NUGC4 (P53 WT); Homo sapiens, NUGC-4, 144 h): 4100 nM
- EC50 [2]: 65 nM

SMILES: COc1cc(S(C)(=O)=O)ccc1NCC#Cc1cc2c(N[C@H]3CCN(C)C[C@H]3F)cccc2n1CC(F)(F)F [Ref-1b, N-((3R,4S)-3-fluoro-1-methylpiperidin-4-yl)-2-(3-((2-methoxy-4-(methylsulfonyl)phenyl)amino)prop-1-yn-1-yl)-1-(2,2,2-trifluoroethyl)-1H-indol-4-amine, reference compound]
- IC50 (NUGC3 (P53 Y220C); Homo sapiens, NUGC-3, 144 h): 1920 nM
- EC50 ([1]; Homo sapiens, NUGC-3): 200 nM
- IC50 (NUGC4 (P53 WT); Homo sapiens, NUGC-4, 144 h): 12500 nM
- EC50 [2]: 96 nM

SMILES: COc1cc(P(C)(C)=O)ccc1NCC#Cc1sc2c(N[C@@H]3CCN(C4CCCCOC4)C[C@@H]3F)cccc2c1CC(F)(F)F (stereo partly drawn) [Example 185, (4-((3-(7-(((3S,4R)-3-fluoro-1-(oxepan-3-yl)piperidin-4-yl)amino)-3-(2,2,2-trifluoroethyl)benzo[b]thiophen-2-yl)prop-2-yn-1-yl)amino)-3-methoxyphenyl)dimethylphosphine oxide]
- IC50 (NUGC3 (P53 Y220C); Homo sapiens, NUGC-3, 144 h): 880 nM
- EC50 ([1]; Homo sapiens, NUGC-3): 110 nM
- IC50 (NUGC4 (P53 WT); Homo sapiens, NUGC-4, 144 h): 2790 nM
- EC50 [2]: 54 nM

SMILES: CN1CC[C@@H](Nc2cccc3c(CC(F)(F)F)c(C#CCNc4ccc(P(C)(C)=O)c5c4OCCO5)sc23)[C@@H](F)C1 [Example 193, (8-((3-(7-(((3S,4R)-3-fluoro-1-methylpiperidin-4-yl)amino)-3-(2,2,2-trifluoroethyl)benzo[b]thiophen-2-yl)prop-2-yn-1-yl)amino)-2,3-dihydrobenzo[b][1,4]dioxin-5-yl)dimethylphosphine oxide]
- IC50 (NUGC3 (P53 Y220C); Homo sapiens, NUGC-3, 144 h): 1220 nM
- EC50 ([1]; Homo sapiens, NUGC-3): 130 nM
- IC50 (NUGC4 (P53 WT); Homo sapiens, NUGC-4, 144 h): 18600 nM
- EC50 [2]: 113 nM

SMILES: CN1CC[C@@H](Nc2cccc3c(CC(F)(F)F)c(C#CCNc4ccc(P(C)(C)=O)cc4OC4CC4)sc23)[C@@H](F)C1 [Example 150, (3-cyclopropoxy-4-((3-(7-(((3S,4R)-3-fluoro-1-methylpiperidin-4-yl)amino)-3-(2,2,2-trifluoroethyl)benzo[b]thiophen-2-yl)prop-2-yn-1-yl)amino)phenyl)dimethylphosphine oxide]
- IC50 (NUGC3 (P53 Y220C); Homo sapiens, NUGC-3, 144 h): 390 nM
- EC50 ([1]; Homo sapiens, NUGC-3): 80 nM
- IC50 (NUGC4 (P53 WT); Homo sapiens, NUGC-4, 144 h): 9920 nM
- EC50 [2]: 35 nM

SMILES: CN1CC[C@@H](Nc2cccc3c(CC(F)(F)F)c(C#CCNc4ccc(P(C)(C)=O)c5c4OCO5)sc23)[C@@H](F)C1 [Example 163, (7-((3-(7-(((3S,4R)-3-fluoro-1-methylpiperidin-4-yl)amino)-3-(2,2,2-trifluoroethyl)benzo[b]thiophen-2-yl)prop-2-yn-1-yl)amino)benzo[d][1,3]dioxol-4-yl)dimethylphosphine oxide]
- IC50 (NUGC3 (P53 Y220C); Homo sapiens, NUGC-3, 144 h): 1210 nM
- EC50 ([1]; Homo sapiens, NUGC-3): 180 nM
- IC50 (NUGC4 (P53 WT); Homo sapiens, NUGC-4, 144 h): 3820 nM
- EC50 [2]: 50 nM

SMILES: CN1CC[C@@H](Nc2cccc3c(CC(F)(F)F)c(C#CCNc4ccc(P(C)(C)=O)cc4C(=O)NC4CC4)sc23)[C@@H](F)C1 [Example 215, N-cyclopropyl-5-(dimethylphosphoryl)-2-((3-(7-(((3S,4R)-3-fluoro-1-methylpiperidin-4-yl)amino)-3-(2,2,2-trifluoroethyl)benzo[b]thiophen-2-yl)prop-2-yn-1-yl)amino)benzamide]
- IC50 (NUGC3 (P53 Y220C); Homo sapiens, NUGC-3, 144 h): 370 nM
- EC50 ([1]; Homo sapiens, NUGC-3): 140 nM
- IC50 (NUGC4 (P53 WT); Homo sapiens, NUGC-4, 144 h): 37300 nM
- EC50 [2]: 42 nM

SMILES: COc1cc(C(=O)NC2CCN(C)CC2F)ccc1NCC#Cc1sc2c(NC3CCN(C)CC3F)cccc2c1CC(F)(F)F (stereo not drawn) [Example 68, N-(3-fluoro-1-methylpiperidin-4-yl)-4-((3-(7-(((Z)-3-fluoro-1-methylpiperidin-4-yl)amino)-3-(2,2,2-trifluoroethyl)benzo[b]thiophen-2-yl)prop-2-yn-1-yl)amino)-3-methoxybenzamide]
- IC50 (NUGC3 (P53 Y220C)): 1080 nM
- EC50 [1]: 640 nM
- IC50 (NUGC4 (P53 WT)): 1390 nM
- EC50 [2]: 44 nM

SMILES: COc1cc(P(C)(C)=O)ccc1NCC#Cc1sc2c(NC3CC(C)N(C)C(C)C3)cccc2c1CC(F)(F)F (stereo not drawn) [Example 143, (3-methoxy-4-((3-(3-(2,2,2-trifluoroethyl)-7-((1,2,6-trimethylpiperidin-4-yl)amino)benzo[b]thiophen-2-yl)prop-2-yn-1-yl)amino)phenyl)dimethylphosphine oxide]
- IC50 (NUGC3 (P53 Y220C); Homo sapiens, NUGC-3, 144 h): 1940 nM
- EC50 ([1]; Homo sapiens, NUGC-3): 450 nM
- IC50 (NUGC4 (P53 WT); Homo sapiens, NUGC-4, 144 h): 6940 nM
- EC50 [2]: 106 nM

SMILES: COc1cc(P(C)(C)=O)ccc1NCC#Cc1sc2c(N[C@@H]3CCN(C4COC4)C[C@@H]3F)cccc2c1CC(F)(F)F (racemic) [Example 75, (4-((3-(7-(((Z)-3-fluoro-1-(oxetan-3-yl)piperidin-4-yl)amino)-3-(2,2,2-trifluoroethyl)benzo[b]thiophen-2-yl)prop-2-yn-1-yl)amino)-3-methoxyphenyl)dimethylphosphine oxide]
- IC50 (NUGC3 (P53 Y220C); Homo sapiens, NUGC-3, 144 h): 1020 nM
- EC50 ([1]; Homo sapiens, NUGC-3): 160 nM
- IC50 (NUGC4 (P53 WT); Homo sapiens, NUGC-4, 144 h): 5340 nM
- EC50 [2]: 82 nM

SMILES: COc1cc(P(C)(C)=O)ccc1NCC#Cc1sc2c(N[C@H]3CCN(C4CCOCC4)C[C@H]3F)cccc2c1CC(F)(F)F [Example 148, (4-((3-(7-(((3R,4S)-3-fluoro-1-(tetrahydro-2H-pyran-4-yl)piperidin-4-yl)amino)-3-(2,2,2-trifluoroethyl)benzo[b]thiophen-2-yl)prop-2-yn-1-yl)amino)-3-methoxyphenyl)dimethylphosphine oxide]
- IC50 (NUGC3 (P53 Y220C); Homo sapiens, NUGC-3, 144 h): 1560 nM
- EC50 ([1]; Homo sapiens, NUGC-3, 6 h): 210 nM
- IC50 (NUGC4 (P53 WT); Homo sapiens, NUGC-4, 144 h): 3080 nM
- EC50 [2]: 147 nM

SMILES: COc1cc(C(N)=O)ccc1NCC#Cc1sc2c(NC3CCN(C)CC3F)cccc2c1CC(F)(F)F (stereo not drawn) [Example 46, 4-((3-(7-(((Z)-3-fluoro-1-methylpiperidin-4-yl)amino)-3-(2,2,2-trifluoroethyl)benzo[b]thiophen-2-yl)prop-2-yn-1-yl)amino)-3-methoxybenzamide]
- IC50 (NUGC3 (P53 Y220C)): 1350 nM
- EC50 [1]: 170 nM
- IC50 (NUGC4 (P53 WT)): 10500 nM
- EC50 [2]: 47 nM

SMILES: COc1cc(P(C)(C)=O)ccc1NCC#Cc1sc2c(NC3CCN(C)CC3F)cccc2c1CC(F)(F)F (stereo not drawn) [Example 15, (4-((3-(7-(((Z)-3-fluoro-1-methylpiperidin-4-yl)amino)-3-(2,2,2-trifluoroethyl)benzo[b]thiophen-2-yl)prop-2-yn-1-yl)amino)-3-methoxyphenyl)dimethylphosphine oxide]
- IC50 (NUGC3 (P53 Y220C)): 360 nM
- EC50 [1]: 310 nM
- IC50 (NUGC4 (P53 WT)): 6990 nM
- EC50 [2]: 34 nM

SMILES: COc1nc(P(C)(C)=O)ccc1NCC#Cc1sc2c(N[C@@H]3CCN(C)C[C@@H]3F)cccc2c1CC(F)(F)F [Example 153, (5-((3-(7-(((3S,4R)-3-fluoro-1-methylpiperidin-4-yl)amino)-3-(2,2,2-trifluoroethyl)benzo[b]thiophen-2-yl)prop-2-yn-1-yl)amino)-6-methoxypyridin-2-yl)dimethylphosphine oxide]
- IC50 (NUGC3 (P53 Y220C); Homo sapiens, NUGC-3, 144 h): 370 nM
- EC50 ([1]; Homo sapiens, NUGC-3): 100 nM
- IC50 (NUGC4 (P53 WT); Homo sapiens, NUGC-4, 144 h): 4070 nM
- EC50 [2]: 31 nM

SMILES: COc1cc(P(C)(C)=O)ccc1NCC#Cc1sc2c(N[C@@H]3CCN(C4CCC4)C[C@@H]3F)cccc2c1CC(F)(F)F (racemic) [Example 103, (4-((3-(7-(((Z)-1-cyclobutyl-3-fluoropiperidin-4-yl)amino)-3-(2,2,2-trifluoroethyl)benzo[b]thiophen-2-yl)prop-2-yn-1-yl)amino)-3-methoxyphenyl)dimethylphosphine oxide]
- IC50 (NUGC3 (P53 Y220C); Homo sapiens, NUGC-3, 144 h): 1280 nM
- EC50 ([1]; Homo sapiens, NUGC-3): 210 nM
- IC50 (NUGC4 (P53 WT); Homo sapiens, NUGC-4, 144 h): 2650 nM
- EC50 [2]: 91 nM

Reference: patent US20240400591A1 (Jacobio Pharmaceuticals Co., Ltd., priority 2021, published 2024)
